In the NIST ThermoML archive (doi:10.1016/j.jct.2016.09.028):
Numbers after ± are expanded uncertainties.

Test: xn = mol fraction of the nth substance listed
Details: 100 kPa, Liquid; for speed of sound: Frequency=3 MHz, Sing-around technique in a fixed-path interferometer; for mass density: Vibrating tube method

Nc1ccccc1 [aniline] + CCn1cc[n+](C)c1.F[B-](F)(F)F
Details | mass density, 293.15 K [kg/m3] | mass density, 303.15 K [kg/m3] | mass density, 313.15 K [kg/m3] | mass density, 323.15 K [kg/m3] | speed of sound, 293.15 K [m/s] | speed of sound, 303.15 K [m/s] | speed of sound, 313.15 K [m/s] | speed of sound, 323.15 K [m/s]
x2 = 0 | 1021.69 ± 1 | 1013.04 ± 1 | 1004.36 ± 1 | 995.66 ± 1 | 1656.8 ± 1.3 | 1618.3 ± 1.3 | 1580 ± 1.3 | 1541.9 ± 1.3
x2 = 0.1008 | 1068.09 ± 1.5 | 1059.52 ± 1.5 | 1050.95 ± 1.5 | 1042.39 ± 1.4 | 1673.6 ± 1.4 | 1634.2 ± 1.4 | 1596.5 ± 1.4 | 1561.8 ± 1.4
x2 = 0.2035 | 1112.92 ± 1.5 | 1104.8 ± 1.5 | 1096.69 ± 1.5 | 1088.57 ± 1.5 | 1684.8 ± 1.5 | 1650.6 ± 1.5 | 1616.2 ± 1.5 | 1583 ± 1.5
x2 = 0.3059 | 1153.03 ± 1.6 | 1144.58 ± 1.6 | 1136.13 ± 1.5 | 1127.68 ± 1.5 | 1689.8 ± 1.6 | 1657.2 ± 1.6 | 1625.5 ± 1.6 | 1593 ± 1.6
x2 = 0.4053 | 1183.5 ± 1.6 | 1175.21 ± 1.6 | 1166.91 ± 1.6 | 1158.62 ± 1.6 | 1688.9 ± 1.7 | 1658.9 ± 1.7 | 1628.7 ± 1.7 | 1596.8 ± 1.7
x2 = 0.5073 | 1208.33 ± 1.6 | 1200.1 ± 1.6 | 1191.87 ± 1.6 | 1183.64 ± 1.6 | 1684.6 ± 1.8 | 1654.5 ± 1.8 | 1624.2 ± 1.8 | 1593.2 ± 1.8
x2 = 0.6013 | 1227.06 ± 1.7 | 1219.01 ± 1.7 | 1210.96 ± 1.7 | 1202.91 ± 1.7 | 1673.9 ± 1.9 | 1646.2 ± 1.9 | 1617.6 ± 1.9 | 1589.3 ± 1.9
x2 = 0.7046 | 1244.52 ± 1.8 | 1236.64 ± 1.8 | 1228.76 ± 1.8 | 1220.88 ± 1.8 | 1660.6 ± 2 | 1634.7 ± 2 | 1608.8 ± 2 | 1582.3 ± 2
x2 = 0.8067 | 1260.47 ± 1.9 | 1252.74 ± 1.9 | 1245.01 ± 1.9 | 1237.28 ± 1.8 | 1648.4 ± 2.1 | 1623.8 ± 2.1 | 1599.4 ± 2.1 | 1575.4 ± 2.1
x2 = 0.9059 | 1272.26 ± 2 | 1264.62 ± 2 | 1256.98 ± 2 | 1249.34 ± 1.9 | 1638.8 ± 2.2 | 1614.2 ± 2.2 | 1591.8 ± 2.2 | 1568.9 ± 2.2
